Experimental data from patent US5523314A, “Compounds useful as hypoglycemic agents and for treating Alzheimer's disease” (priority 1994, dated 1996).
Like-named read-outs stand apart in the source and are kept apart here.

Legend:
[1] = test system: blood glucose level; test: Hypoglycemic activity in normal fed rats (Table 2); type: in vivo, male Sprague Dawley rats; conditions: Rattus norvegicus, oral
Experimental: The procedure used in this test system is described below.
The desired dose level of each test formulation was administered to four rats by oral […] at the beginning of the experiment. Blood glucose levels were determined immediately before the first dose and at 3 and 5 hours thereafter by an enzymatic procedure employing glucose oxidase and peroxidase coupled with a chromogenic oxygen acceptor. A mean was taken of the 4 values obtained before the first dose and at the 3 and 5 hour intervals.

[2] = biological target: T1, Human liver cathepsin D (Homo sapiens, UniProt P07339); test: Cathepsin D inhibition, fluorometric assay (Tables 5 and 6); type: biochemical; conditions: for inhibition at 4.15 µg/mL (stock): Compound Stock Concentration 4.15 μg/ml; for inhibition at 8.3 µg/mL (stock): Compound Stock Concentration 8.3 μg/ml; for inhibition at 10 µg/mL (stock): Compound Stock Concentration 10.0 μg/ml
T1 construct: purchased Athens Research and Technology, Athens, Ga; host or cells: human liver
T1 sequence (P07339 169-412 limits assumed): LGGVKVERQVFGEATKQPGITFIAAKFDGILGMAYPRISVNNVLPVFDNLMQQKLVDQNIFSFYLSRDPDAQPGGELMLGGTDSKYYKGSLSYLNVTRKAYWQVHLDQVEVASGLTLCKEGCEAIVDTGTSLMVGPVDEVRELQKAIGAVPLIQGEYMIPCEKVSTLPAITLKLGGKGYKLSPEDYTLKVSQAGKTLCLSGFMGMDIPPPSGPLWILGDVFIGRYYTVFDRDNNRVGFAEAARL
T1 sequence (P07339 65-161 limits assumed): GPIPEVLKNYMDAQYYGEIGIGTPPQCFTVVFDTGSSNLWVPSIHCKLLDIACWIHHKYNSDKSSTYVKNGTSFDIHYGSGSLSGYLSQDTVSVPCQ
Experimental: Human liver cathepsin D (Athens Research and Technology, Athens, Ga.) was diluted in assay buffer, 200 mM NaOAc, pH 4.5, 150 mM NaCl to 500 ng/mL and then 100 μL of this cathepsin D solution was added to each well of a 96 well plate with the exception of control wells which received just 100 μL of assay buffer. […] Blank and enzyme control wells each received 5 μL of the DMSO vehicle.
After incubation at 37° C. for 30 minutes, cathepsin D activity was terminated by the addition of 100 μL per well of 400 mU/mL microsomal leucine aminopeptidase (EC 3.4.11.2, Sigma, St. Louis, Mo.) in 1M Tris-HCl, pH 8.0.
Following a two hour incubation at 37° C., to allow the aminopeptidase to release the fluorophore, 7-amido-4-methylcoumarin (AMC) from the products of cathepsin D cleavage, the plates were again analyzed in the fluorometer. In order to check for potential false positives, i.e., inhibitors of microsomal leucine aminopeptidase, residual aminopeptidase activity was monitored directly in each well by the addition of 20 μL/well of 2.5 mM Leu-pNA (Bachem Biosciences, Philadelphia, Pa.) in 10% DMSO.

[3] = test system: β-amyloid protein; test: β-amyloid protein production inhibition in 293 751 SWE and CHO 751 SWE cells, ELISA (Table 7); type: cell-based; conditions: normalized for cytotoxicity; for inhibition at 10 µg/mL (stock): Compound Stock Concentration 10.0 μg/ml; for inhibition at 0.31 µg/mL (stock): Compound Stock Concentration 0.31 μg/ml; for inhibition at 0.62 µg/mL (stock): Compound Stock Concentration 0.62 μg/ml; for inhibition at 1.25 µg/mL (stock): Compound Stock Concentration 1.25 μg/ml; for inhibition at 2.5 µg/mL (stock): Compound Stock Concentration 2.5 μg/ml; for inhibition at 5 µg/mL (stock): Compound Stock Concentration 5.0 μg/ml
Experimental: Two cell lines (human kidney cell line 293 and Chinese hamster ovary cell line CHO) were stably transfected with the gene for APP751 containing the double mutation Lys-651-Met-652 to Asn-651-Leu-652 (APP-751 numbering) commonly called the Swedish mutation using the method described in Citron et al., Nature 360:672-674 (1992). The transfected cell lines were designated as 293 751 SWE and CHO 751 SWE, and were plated in Corning 96 well plates at 2.5×10^4 or 1×10^4 cells per well respectively in Dulbecco's minimal essential media (DMEM) plus 10% fetal bovine serum. […] These compound stocks were prepared by dissolving a sufficient quantity of the particular compound to be tested in DMSO such that various concentrations were obtained. After this pretreatment period, the conditioned media was removed and replaced with fresh conditioned media and the cells were incubated for an additional two hours.
After treatment, plates were centrifuged in a Beckman GPR at 1200 rpm for five minutes at room temperature to pellet cellular debris from the conditioned media. From each well, 100 μL of conditioned media were transferred into an ELISA plate precoated with antibody 266 [Seubert et al., Nature, 359:325-327 (1992)] and stored at 4° C. overnight prior to the completion of the ELISA assay the next day.
Cytotoxic effects of the compounds were measured by a modification of the method of Hansen et al., J. Immun. Meth. 119:203-210 (1989). To the cells remaining in the tissue culture plate, was added 25 μL of a 3-(4,5-dimethylthiazol-2-yl)-2,5-diphenyltetrazolium bromide (MTT) stock solution (5 mg/mL) to a final concentration of 1 mg/mL. Cells were incubated at 37° C. for one hour, and cellular activity was stopped by the addition of an equal volume of MTT lysis buffer (20% w/v sodium dodecylsulfate in 50% DMF, pH 4.7). Complete extraction was achieved by overnight shaking at room temperature. The difference in the OD562nm and the OD650nm was measured in a Molecular Devices UVmax microplate reader as an indicator of the cellular viability.
The results of the β-amyloid protein ELISA were fit to a standard curve and expressed as ng/mL β-amyloid protein peptide. In order to normalize for cytotoxicity, these β-amyloid protein results were divided by the cytotoxicity results and expressed as a percentage of the results from a drug-free control.

[4] = test system: blood glucose level; test: Hypoglycemic activity in obese diabetic mice (Table 1); type: in vivo, male viable yellow obese-diabetic mice; conditions: Mus musculus, ip, intraperitoneal
Outline: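 Male viable yellow obese-diabetic mice, six per group, dosed intraperitoneally once with compound in saline containing 2% Emulphor. Blood glucose measured by glucose oxidase before dosing and at 2 and 4 h. Values are the 2 h and 4 h glucose as % of pre-dose level.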

[5] = test system: plasma glucose concentration; test: Long-term hypoglycemic activity, compound in diet, ZDF rats (Table 4); type: in vivo, 8 week old male Zucker Diabetic Fatty rat; conditions: 0.1% in diet
Experimental: Finally, the long-term hypoglycemic activity of the compounds of the present invention was tested in yet another in vivo test system. This long-term test system entailed incorporating test compound into the test animal's diet at various concentrations (control animal's diet contained no test compound). Such diet was then fed to the test or control animals for either 14 or 21 days. Each test or control animal was then bled from the tail (200-400 μl sample of blood) at 0 (before diet started), 7, 14 and, if appropriate, 21 and 28 days after diet administration was started. Plasma samples were then obtained from each blood sample collected and the glucose concentration of such plasma samples was determined enzymatically.
Columns 4-8 provide the plasma glucose concentration at days 0, 7, 14 and, if appropriate, 21 and 28, respectively, for the animals tested. Glucose lowering was not associated with depressed diet consumption.

[6] = 3 hrs, read-out: Percent of Initial Blood Glucose Level After 3 hrs.
[7] = 5 hrs, read-out: Percent of Initial Blood Glucose Level After 5 hrs.
[8] = 2 h, 2 hrs, read-out: Percent of Initial Blood Glucose Level After 2 hrs.
[9] = 4 h, 4 hrs, read-out: Percent of Initial Blood Glucose Level After 4 hrs.

Row | Structure (SMILES) | response vs control in vivo at 200 mg/kg [1, 6] [%] | response vs control in vivo at 200 mg/kg [1, 7] [%] | IC50 [2] [µM] | inhibition at 4.15 µg/mL (stock) [2] [%] | inhibition at 10 µg/mL (stock) [3] [%] | response vs control in vivo at 50 mg/kg [4, 8] [%] | response vs control in vivo at 50 mg/kg [4, 9] [%] | also measured
1 | CCCCCCCCOc1ccc(C=C2SC(=S)NC2=O)cc1OC [Example 69, 5-[(3-methoxy-4-octoxyphenyl)methylene]-2-thioxo-4-thiazolidinone] | 93 | 88 | 2.1 | 51 |  |  |  | 
2 | O=C1NC(=S)SC1=Cc1ccc(Oc2ccccc2)cc1 [Example 5, 5-[(4-phenoxyphenyl)methylene]-2-thioxo-4-thiazolidinone] |  |  | 3.6 |  | 47 | 79 ± 4 | 71 ± 3 | inhibition at 8.3 µg/mL (stock) [2]: 100%; inhibition at 10 µg/mL (stock) [2]: 76%
3 | CCCCCCCOc1ccc(C=C2SC(=S)NC2=O)cc1OC [Example 31, 5-[(3-methoxy-4-heptoxyphenyl)methylene]-2-thioxo-4-thiazolidinone] | 95 | 92 | 1.9 | 69.5 | 57 | 76 ± 7 | 76 ± 5 | inhibition at 0.31 µg/mL (stock) [3]: 0%; inhibition at 0.62 µg/mL (stock) [3]: 7%; inhibition at 1.25 µg/mL (stock) [3]: 15%; inhibition at 2.5 µg/mL (stock) [3]: 28%; inhibition at 5 µg/mL (stock) [3]: 37%; inhibition at 10 µg/mL (stock) [2]: 88.5%
4 | CCCOc1ccc(C=C2SC(=S)NC2=O)cc1 [Example 61, 5-[(4-propoxyphenyl)methylene]-2-thioxo-4-thiazolidinone] | 89 | 82 |  |  |  |  | 61 ± 5 | 
5 | COc1cc(C=C2SC(=S)NC2=O)cc(OC)c1O [Example 63, 5-[(3,5-dimethoxy-4-hydroxyphenyl)methylene]-2-thioxo-4-thiazolidinone] | 69 | 52 |  | 53 |  |  |  | 
6 | COc1cc(C=C2SC(=S)NC2=O)cc(OC)c1OC [Example 17, 5-[(3,4,5-trimethoxyphenyl)methylene]-2-thioxo-4-thiazolidinone] | 78 | 68 |  |  |  | 88 ± 8 | 89 ± 10 | 
7 | CCCCOc1ccc(C=C2SC(=S)NC2=O)cc1OC [Example 41, 5-[(3-methoxy-4-butoxyphenyl)methylene]-2-thioxo-4-thiazolidinone] |  |  |  |  |  | 61 ± 3 |  | response vs control in vivo at 160 mg/kg [1, 6]: 76%; response vs control in vivo at 160 mg/kg [1, 7]: 67%; response vs control in vivo at 5 mg/kg ([4]; 2 h, 5 mg/kg, 2 hrs, read-out: Percent of Initial Blood Glucose Level After 2 hrs.): 93 ± 10%; response vs control in vivo at 10 mg/kg ([4]; 2 h, 10 mg/kg, 2 hrs, read-out: Percent of Initial Blood Glucose Level After 2 hrs.): 80 ± 7%
8 | COc1cccc(C=C2SC(=S)NC2=O)c1OC [Example 24, 5-[(2,3-dimethoxyphenyl)methylene]-2-thioxo-4-thiazolidinone] | 100 | 100 |  |  |  | 78 ± 4 | 80 ± 5 | 
9 | O=C1NC(=S)SC1=Cc1ccc(-c2ccccc2)cc1 [Example 42, 5-[[(1,1'-biphenyl)-4-yl]methylene]-2-thioxo-4-thiazolidinone] |  |  | 1.7 | 78 | 51 | 87 ± 8 | 70 ± 8 | inhibition at 0.31 µg/mL (stock) [3]: 8%; inhibition at 0.62 µg/mL (stock) [3]: 11%; inhibition at 1.25 µg/mL (stock) [3]: 14%; inhibition at 2.5 µg/mL (stock) [3]: 16%; inhibition at 5 µg/mL (stock) [3]: 35%; inhibition at 10 µg/mL (stock) [2]: 87.5%
10 | CCOc1cc(C=C2SC(=S)NC2=O)ccc1O [Example 32, 5-[(3-ethoxy-4-hydroxyphenyl)methylene]-2-thioxo-4-thiazolidinone] | 100 | 96 |  | 75 |  | 75 ± 4 | 80 ± 8 | 
11 | CCCCCCOc1ccc(C=C2SC(=S)NC2=O)cc1OC [Example 68, 5-[(3-methoxy-4-hexoxyphenyl)methylene]-2-thioxo-4-thiazolidinone] | 88 | 89 | 10.2 | 53.7 |  |  |  | 
12 | O=C1NC(=S)SC1=Cc1ccco1 [Example 15, 5-[(2-furanyl)methylene]-2-thioxo-4-thiazolidinone] |  |  |  |  |  | 73 ± 5 | 62 ± 4 | response vs control in vivo at 167 mg/kg [1, 6]: 84%; response vs control in vivo at 167 mg/kg [1, 7]: 87%
13 | O=C1NC(=S)SC1=Cc1cccc(Oc2ccccc2)c1 [Example 77, 5-[(3-phenoxyphenyl)methylene]-2-thioxo-4-thiazolidinone] |  |  | 3.7 | 64 | 25 |  |  | inhibition at 10 µg/mL (stock) [2]: 87%
14 | CCCCCCCOc1ccc(C=C2SC(=S)N(N(C)C)C2=O)cc1OC [Example 81, 5-[(3-methoxy-4-heptoxyphenyl)methylene]-2-thioxo-3-dimethylamino-4-thiazolidinone] |  |  | 319 |  | 100 |  |  | inhibition at 8.3 µg/mL (stock) [2]: 21%
15 | CCCCCOc1ccc(CC2SC(=S)NC2=O)cc1OC (stereo not drawn) [Example 64, 5-[(3-methoxy-4-pentoxyphenyl)methyl]-2-thioxo-4-thiazolidinone] | 91 | 89 |  |  |  |  |  | Plasma Glucose Concentration ([5]; day 0 (before diet started)): 339 mg/dL; Plasma Glucose Concentration ([5]; day 7): 187 mg/dL; Plasma Glucose Concentration ([5]; day 14): 182 mg/dL
